{
  "source": "patent US20090221829A1",
  "about": "(priority 2005, published 2009)",
  "data": [
    {"tested_on": "Candida albicans(KCTC 1940), Aspergillus niger (ATCC 9642) and Saccharomyces cerevisiae", "experiment": "Relative antifungal activity by agar dilution method (vs Miconazole);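 also: scores 5 to 7 mean a lower fungicidal concentration than Miconazole so higher is more potent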", "format": "cell-based", "settings": "agar dilution method; fungicidal concentration relative to control drug Miconazole (=4)", "description": "(§1) Novel compounds represented by the above chemical formula (I), and the relative activities in accordance with the agar dilution method in Sabouraud dextrose agar media, Czapek agar media and Yeast Extract-Peptone-Dextrose agar media for Candida albicans(KCTC 1940), Aspergillus niger (ATCC 9642) and Saccharomyces cerevisiae are described respectively in following Table 1.", "values": [
      {"smiles": "CCCCCCCC1=[N+](Cc2cc(Br)c(OC)c(OC)c2)CCc2cc(OC)c(OC)cc21.[Cl-]", "note": "[Compound No. 79, 1-n-heptyl-2-(3-bromo-4,5-dimethoxyphenyl)methyl-3,4-dihydro-6,7-dimethoxyisoquinolinium chloride]", "Relative Activity": 5},
      {"smiles": "COc1ccc2c(c1)CC[N+](Cc1ccccc1F)=C2C.[Cl-]", "note": "[Compound No. 80, 1-methyl-2-(2-fluorophenyl)methyl-3,4-dihydro-6-methoxyisoquinolinium chloride]", "Relative Activity": 6},
      {"smiles": "CCC1=[N+](Cc2ccccc2F)CCc2cc(OC)ccc21.[Cl-]", "note": "[Compound No. 81, 1-ethyl-2-(2-fluorophenyl)methyl-3,4-dihydro-6-methoxyisoquinolinium chloride]", "Relative Activity": 6},
      {"smiles": "CCCC1=[N+](Cc2ccccc2F)CCc2cc(OC)ccc21.[Cl-]", "note": "[Compound No. 82, 1-n-propyl-2-(2-fluorophenyl)methyl-3,4-dihydro-6-methoxyisoquinolinium chloride]", "Relative Activity": 6},
      {"smiles": "COc1ccc2c(c1)CC[N+](Cc1ccccc1F)=C2CC(C)C.[Cl-]", "note": "[Compound No. 84, 1-(2-methyl)propyl-2-(2-fluorophenyl)methyl-3,4-dihydro-6-methoxyisoquinolinium chloride]", "Relative Activity": 6},
      {"smiles": "CCCCCC1=[N+](Cc2ccccc2F)CCc2cc(OC)ccc21.[Cl-]", "note": "[Compound No. 85, 1-n-pentyl-2-(2-fluorophenyl)methyl-3,4-dihydro-6-methoxyisoquinolinium chloride]", "Relative Activity": 5},
      {"smiles": "CCCCCCC1=[N+](Cc2ccccc2F)CCc2cc(OC)ccc21.[Cl-]", "note": "[Compound No. 86, 1-n-hexyl-2-(2-fluorophenyl)methyl-3,4-dihydro-6-methoxyisoquinolinium chloride]", "Relative Activity": 5},
      {"smiles": "CCCCCCCC1=[N+](Cc2ccccc2F)CCc2cc(OC)ccc21.[Cl-]", "note": "[Compound No. 87, 1-n-heptyl-2-(2-fluorophenyl)methyl-3,4-dihydro-6-methoxyisoquinolinium chloride]", "Relative Activity": 5},
      {"smiles": "CCCCCCCCCCCC1=[N+](Cc2ccccc2F)CCc2cc(OC)ccc21.[Cl-]", "note": "[Compound No. 88, 1-n-undecyl-2-(2-fluorophenyl)methyl-3,4-dihydro-6-methoxyisoquinolinium chloride]", "Relative Activity": 2},
      {"smiles": "CCCCCCCCCCCCCCCC1=[N+](Cc2ccccc2F)CCc2cc(OC)ccc21.[Cl-]", "note": "[Compound No. 89, 1-n-pentadecyl-2-(2-fluorophenyl)methyl-3,4-dihydro-6-methoxyisoquinolinium chloride]", "Relative Activity": 1},
      {"smiles": "COc1ccc2c(c1)CC[N+](Cc1ccccc1F)=C2c1ccccc1F.[Cl-]", "note": "[Compound No. 90, 1-(2-fluorophenyl)-2-(2-fluorophenyl)methyl-3,4-dihydro-6-methoxyisoquinolinium chloride]", "Relative Activity": 6},
      {"smiles": "COc1ccc2c(c1)CC[N+](Cc1ccccc1F)=C2c1ccc(C(C)(C)C)cc1.[Cl-]", "note": "[Compound No. 91, 1-(4-t-butylphenyl)-2-(2-fluorophenyl)methyl-3,4-dihydro-6-methoxyisoquinolinium chloride]", "Relative Activity": 6},
      {"smiles": "CC1=[N+](Cc2ccc(C(F)(F)F)cc2)CCc2cc3c(cc21)OCO3.[Cl-]", "note": "[Compound No. 107, 1-methyl-2-(4-trifluoromethylphenyl)methyl-3,4-dihydro-6,7-methylenedioxyisoquinolinium chloride]", "Relative Activity": 6},
      {"smiles": "CCCCCCCC1=[N+](Cc2ccc(C(F)(F)F)cc2)CCc2cc3c(cc21)OCO3.[Cl-]", "note": "[Compound No. 108, 1-n-heptyl-2-(4-trifluoromethylphenyl)methyl-3,4-dihydro-6,7-methylenedioxyisoquinolinium chloride]", "Relative Activity": 4},
      {"smiles": "CCCCCCCCCCCCCCCC1=[N+](Cc2ccc(C(F)(F)F)cc2)CCc2cc3c(cc21)OCO3.[Cl-]", "note": "[Compound No. 109, 1-n-pentadecyl-2-(4-trifluoromethylphenyl)methyl-3,4-dihydro-6,7-methylenedioxyisoquinolinium chloride]", "Relative Activity": 1},
      {"smiles": "CC(C)(C)c1ccc(C2=[N+](Cc3ccc(C(F)(F)F)cc3)CCc3cc4c(cc32)OCO4)cc1.[Cl-]", "note": "[Compound No. 110, 1-(4-t-butylphenyl)-2-(4-trifluoromethylphenyl)methyl-3,4-dihydro-6,7-methylenedioxyisoquinolinium chloride]", "Relative Activity": 6},
      {"smiles": "CCCCCCCC1=[N+](Cc2ccc(F)c(F)c2)CCc2cc3c(cc21)OCO3.[Cl-]", "note": "[Compound No. 112, 1-n-heptyl-2-(3,4-difluorophenyl)methyl-3,4-dihydro-6,7-methylenedioxyisoquinolinium chloride]", "Relative Activity": 4},
      {"smiles": "CCCCCCCCCCCCCCCC1=[N+](Cc2ccc(F)c(F)c2)CCc2cc3c(cc21)OCO3.[Cl-]", "note": "[Compound No. 113, 1-n-pentadecyl-2-(3,4-difluorophenyl)methyl-3,4-dihydro-6,7-methylenedioxyisoquinolinium chloride]", "Relative Activity": 1},
      {"smiles": "CC(C)(C)c1ccc(C2=[N+](Cc3ccc(F)c(F)c3)CCc3cc4c(cc32)OCO4)cc1.[Cl-]", "note": "[Compound No. 114, 1-(4′-t-butylphenyl)-2-(3,4-difluorophenyl)methyl-3,4-dihydro-6,7-methylenedioxyisoquinolinium chloride]", "Relative Activity": 6},
      {"smiles": "CCCCCCCCCCCC1=[N+](c2ccc(C(C)(C)C)cc2)CCc2cc(CNC(=O)OCC)c(OC)cc21.[Br-]", "note": "[Compound No. 116, ethyl 3,4-dihydro-7-methoxy-6-(4-t-butylphenyl)-1-undecylisoquinolinium-6-ylmethylcabamate bromide]", "Relative Activity": 2},
      {"smiles": "CCCCCCCCCCCC1=[N+](c2ccc(C(F)(F)F)cc2)CCc2cc(CNC(=O)OCC)ccc21.[Br-]", "note": "[Compound No. 117, Ethyl 3,4-dihydro-1-undecylisoquinolinium-2-(4-trifluoromethylphenyl)-6-ylmethylcabamate bromide]", "Relative Activity": 4},
      {"smiles": "CCCCCCCCCCCC1=[N+](Cc2ccc(NC(=O)OCC)c(NC(=O)OCC)c2)CCc2cc(OC)c(OC)cc21.[Cl-]", "note": "[Compound No. 122, 6,7-dimethoxy-2-(3,4-bis(ethoxy Carbonylamino)phenyl)methyl-3,4-dihydro-1-undecylisoquinolinium chloride]", "Relative Activity": 2},
      {"smiles": "CCCC1=[N+](Cc2ccc(C(C)(C)C)cc2)CCc2cc(OC)c(OC)cc21.[Cl-]", "note": "[Compound No. 123, 1-propyl-2-(4-t-butylphenyl)methyl-3,4-dihydro-6,7-dimethoxyisoquinolinium chloride]", "Relative Activity": 6},
      {"smiles": "COc1cc2c(cc1OC)C(CCc1ccc(C(C)(C)C)cc1)=[N+](Cc1ccccc1F)CC2", "note": "[Compound No. 124, 1-(2-(4-t-butylphenyl))ethyl-2-(2-fluorophenyl)methyl-3,4-dihydro-6,7-dimethoxyisoquinolinium chloride]", "Relative Activity": 2},
      {"smiles": "COc1ccc(C[N+]2=C(CCc3ccc(C(C)(C)C)cc3)c3cc(OC)c(OC)cc3CC2)cc1OC", "note": "[Compound No. 125, 1-(2-(4-t-butylphenyl))ethyl-2-(3,4-dimethoxyphenyl)methyl-3,4-dihydro-6,7-dimethoxyisoquinolinium chloride]", "Relative Activity": 2},
      {"smiles": "COc1cc2c(cc1OC)C(CCc1ccc(C(C)(C)C)cc1)=[N+](Cc1ccc(C(F)(F)F)cc1)CC2.[Cl-]", "note": "[Compound No. 129, 1-(2-(4-t-butylphenyl))ethyl-2-(4-trifluoromethylphenyl)methyl-3,4-dihydro-6,7-dimethoxy isoquinolinium chloride]", "Relative Activity": 4},
      {"smiles": "COc1cc2c(cc1OC)C(CCc1ccc(C(C)(C)C)cc1)=[N+](Cc1c(F)c(F)c(F)c(F)c1F)CC2.[Cl-]", "note": "[Compound No. 130, 1-(2-(4-t-butylphenyl))ethyl-2-(2,3,4,5,6-pentafluorophenyl)methyl-3,4-dihydro-6,7-dimethoxy isoquinolinium chloride]", "Relative Activity": 4},
      {"smiles": "COc1cc2c(cc1OC)C(CCc1ccc(C(C)(C)C)cc1)=[N+](Cc1c(F)c(F)c(C(F)(F)F)c(F)c1F)CC2.[Cl-]", "note": "[Compound No. 131, 1-(2-(4-t-butylphenyl))ethyl-2-(2,3,5,6-tetrafluoro-4-trifluoromethylphenyl)methyl-3,4-dihydro-6,7-dimethoxy isoquinolinium chloride]", "Relative Activity": 4},
      {"smiles": "COc1cc2c(cc1OC)C(CCc1ccc(C(C)(C)C)cc1)=[N+](Cc1cccc(OC)c1OCc1c(F)cccc1Cl)CC2", "note": "[Compound No. 133, 1-(2-(4-t-butylphenyl))ethyl-2-(2-(2-chloro-6-fluorobenzyloxy)-3-methoxyphenyl)methyl-3,4-dihydro-6,7-dimethoxyisoquinolinium chloride]", "Relative Activity": 1},
      {"smiles": "COc1cc2c(cc1OC)C(CCc1ccc(C(C)(C)C)cc1)=[N+](Cc1cccc(OC)c1OCc1cccc(OC)c1OC)CC2.[Cl-]", "note": "[Compound No. 136, 1-(2-(4-t-butylphenyl))ethyl-2-(2-(2,3-dimethoxybenzyloxy)-3-methoxyphenyl)methyl-3,4-dihydro-6,7-dimethoxy isoquinolinium chloride]", "Relative Activity": 4},
      {"smiles": "CCCCCCCCCCCC1=[N+](Cc2ccc(C(F)(F)F)cc2)CCc2cc(F)ccc21.[Cl-]", "note": "[Compound No. 137, 1-undecyl-2-(4-trifluoromethylphenyl)methyl-3,4-dihydro-6-fluoro isoquinolinium chloride]", "Relative Activity": 1}
    ]},
    {"tested_on": "Candida albicans(KCTC 1940), Aspergillus niger (ATCC 9642) and Saccharomyces cerevisiae", "experiment": "Relative antifungal activity by agar dilution method (vs Miconazole);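 also: scores 5 to 7 mean a lower fungicidal concentration than Miconazole so higher is more potent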", "format": "cell-based", "settings": "antifungal activity relative to Miconazole, agar dilution", "description": "as §1", "values": [
      {"smiles": "COc1cc2cc[n+](Cc3c(F)cccc3Cl)cc2cc1OC.[Cl-]", "note": "[Compound No. 141, 2-(2-chloro-6-fluorophenyl)methyl-6,7-dimethoxyisoquinolinium chloride]", "Relative Activity": 6}
    ]}
  ]
}
